In ChEMBL document CHEMBL1127426, “Androgen receptor affinity of 5'-acyl furanosteroids” (1994):

Each compound was assayed against T1, Androgen receptor (Rattus norvegicus) (UniProt P15207) (assay: Effective dose required to inhibit testosterone propionate-stimulated prostate weight gain by 50% […].). Details: Prostate gland.
T1 sequence (whole entry): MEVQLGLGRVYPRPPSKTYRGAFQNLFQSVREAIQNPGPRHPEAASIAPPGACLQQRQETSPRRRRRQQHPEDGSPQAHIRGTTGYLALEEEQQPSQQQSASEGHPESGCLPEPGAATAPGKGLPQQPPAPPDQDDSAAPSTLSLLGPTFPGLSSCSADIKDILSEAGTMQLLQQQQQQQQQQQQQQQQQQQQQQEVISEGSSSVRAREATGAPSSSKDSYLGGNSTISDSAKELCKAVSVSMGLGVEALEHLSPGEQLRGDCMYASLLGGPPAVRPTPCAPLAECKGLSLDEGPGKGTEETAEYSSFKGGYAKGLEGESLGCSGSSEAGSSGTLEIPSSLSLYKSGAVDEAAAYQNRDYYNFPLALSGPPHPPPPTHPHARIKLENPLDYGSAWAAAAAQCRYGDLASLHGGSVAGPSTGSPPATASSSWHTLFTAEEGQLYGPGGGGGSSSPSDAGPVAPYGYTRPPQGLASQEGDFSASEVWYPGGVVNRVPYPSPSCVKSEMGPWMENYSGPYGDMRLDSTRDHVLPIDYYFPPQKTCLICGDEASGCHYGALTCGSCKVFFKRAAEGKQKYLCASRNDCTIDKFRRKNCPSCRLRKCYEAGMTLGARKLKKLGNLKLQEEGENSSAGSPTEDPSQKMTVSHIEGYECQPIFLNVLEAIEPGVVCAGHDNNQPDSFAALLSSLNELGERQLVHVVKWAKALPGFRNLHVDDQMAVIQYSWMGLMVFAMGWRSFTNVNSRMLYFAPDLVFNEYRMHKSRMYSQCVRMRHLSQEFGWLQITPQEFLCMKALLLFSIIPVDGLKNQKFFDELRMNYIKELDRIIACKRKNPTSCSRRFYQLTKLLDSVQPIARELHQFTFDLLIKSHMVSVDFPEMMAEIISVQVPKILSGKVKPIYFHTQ
Format: tissue-based
Compound `C#C[C@]1(O)CCC2C3CC[C@H]4Cc5oc(C(C)=O)cc5C[C@]4(C)C3CC[C@@]21C` (stereo partly specified) has an ED50 of over 100 mg/kg. `C[C@]12CCC3C(CC[C@H]4Cc5oc(C=O)cc5C[C@H]34)C1CC[C@@H]2O` (stereo partly specified) was tested, and the ED50 was over 100 mg/kg. Work on `C[C@]12CCC3C(CC[C@H]4Cc5oc(C(=O)C6CC6)cc5C[C@]34C)C1CC[C@@H]2O` (stereo partly specified) yielded an ED50 of 100 mg/kg. With `C[C@]12CCC3C(CC[C@H]4Cc5oc(C(=O)O)cc5C[C@]34C)C1CC[C@@H]2O` (stereo partly specified) the ED50 was over 100 mg/kg. With `C#C[C@]1(O)CCC2C3CC[C@H]4Cc5oc(C=O)cc5C[C@]4(C)C3CC[C@@]21C` (stereo partly specified) the ED50 was 100 mg/kg. `CC(=O)c1cc2cc3c(cc2o1)CC[C@@H]1[C@@H]3CC[C@]2(C)[C@@H](O)CC[C@@H]12` showed an ED50 of 100 mg/kg. For `COC(=O)c1cc2c(o1)C[C@@H]1CCC3C4CC[C@H](O)[C@@]4(C)CCC3[C@@]1(C)C2` (stereo partly specified), the ED50 was over 100 mg/kg. In the case of `CCC(=O)c1cc2c(o1)C[C@@H]1CCC3C4CC[C@H](O)[C@@]4(C)CCC3[C@@]1(C)C2` (stereo partly specified), the ED50 is reported as 33 mg/kg. Compound `C#C[C@]1(O)CCC2C3CC[C@H]4Cc5oc(C(=O)OC)cc5C[C@]4(C)C3CC[C@@]21C` (stereo partly specified) has an ED50 of over 50 mg/kg. In the case of `C#C[C@]1(O)CCC2C3CC[C@H]4Cc5oc(C(N)=O)cc5C[C@]4(C)C3CC[C@@]21C` (stereo partly specified), the ED50 is reported as 56 mg/kg. `C#C[C@]1(O)CCC2C3CC[C@H]4Cc5oc(C(=O)CC)cc5C[C@]4(C)C3CC[C@@]21C` (stereo partly specified) showed an ED50 of 30 mg/kg. `C#C[C@]1(O)CCC2C3CC[C@H]4Cc5oc(C(C)=O)cc5C[C@@H]4C3CC[C@@]21C` (stereo partly specified) showed an ED50 of 100 mg/kg. `C[C@]12CCC3C(CC[C@H]4Cc5occc5C[C@]34C)C1CC[C@@H]2O` (stereo partly specified) gave an ED50 of over 100 mg/kg. `C[C@]12CCC3C(CC[C@H]4Cc5oc(C=O)cc5C[C@]34C)C1CC[C@@H]2O` (stereo partly specified) gave an ED50 of over 100 mg/kg. For `CC(C)(C)C(=O)c1cc2c(o1)C[C@@H]1CCC3C4CC[C@H](O)[C@@]4(C)CCC3[C@@]1(C)C2` (stereo partly specified), the ED50 was over 100 mg/kg. In the case of `CCCC(=O)c1cc2c(o1)C[C@@H]1CCC3C4CC[C@H](O)[C@@]4(C)CCC3[C@@]1(C)C2` (stereo partly specified), the ED50 is reported as over 75 mg/kg. `CC1(C(=O)c2cc3c(o2)C[C@@H]2CCC4C5CC[C@H](O)[C@@]5(C)CCC4[C@@]2(C)C3)CC1` (stereo partly specified) showed an ED50 of over 100 mg/kg. Compound `C[C@]12CCC3C(CC[C@H]4Cc5oc(C(=O)c6ccccc6)cc5C[C@]34C)C1CC[C@@H]2O` (stereo partly specified) has an ED50 of over 100 mg/kg. In the case of `C#C[C@]1(O)CCC2C3CC[C@H]4Cc5oc(C(=O)O)cc5C[C@]4(C)C3CC[C@@]21C` (stereo partly specified), the ED50 is reported as over 100 mg/kg.

Species on record: Rattus norvegicus
Experiment: Effective dose required for the compound to inhibit testosterone propionate-stimulated prostate weight gain by 50% […].
Format: functional
Details: Prostate gland
For `COc1ccc(C(=O)c2cc3c(o2)C[C@@H]2CCC4C5CC[C@H](O)[C@@]5(C)CCC4[C@@]2(C)C3)cc1` (stereo partly specified), the ED50 was over 100 mg/kg.

Each compound was assayed against T1, Androgen receptor (Rattus norvegicus). Details: Prostate gland; filed as agonist.
With `CC[C@]1(O)CCC2C3CC[C@H]4Cc5oc(C(C)=O)cc5C[C@]4(C)C3CC[C@@]21C` (stereo partly specified) the ED50 was “Agonist”. In the case of `CC(C)C(=O)c1cc2c(o1)C[C@@H]1CCC3C4CC[C@H](O)[C@@]4(C)CCC3[C@@]1(C)C2` (stereo partly specified), the ED50 is reported as “Agonist”. `C#C[C@]1(O)CCC2C3CC[C@H]4Cc5oc(C(=O)C(F)(F)F)cc5C[C@]4(C)C3CC[C@@]21C` (stereo partly specified) was tested, and the ED50 was “Agonist”. `C#C[C@]1(O)CCC2C3CC[C@H]4Cc5oc(C(=O)C6CC6)cc5C[C@]4(C)C3CC[C@@]21C` (stereo partly specified) was tested, and the ED50 was “Agonist”. `C#C[C@]1(O)CCC2C3CC[C@H]4Cc5oc(C(=O)C(Cl)(Cl)Cl)cc5C[C@]4(C)C3CC[C@@]21C` (stereo partly specified) was tested, and the ED50 was “Agonist”. With `C=C[C@]1(O)CCC2C3CC[C@H]4Cc5oc(C(C)=O)cc5C[C@]4(C)C3CC[C@@]21C` (stereo partly specified) the ED50 was “Agonist”. For `C#C[C@]1(O)CCC2C3CC[C@H]4Cc5oc(C(=O)C(C)C)cc5C[C@]4(C)C3CC[C@@]21C` (stereo partly specified), the ED50 was “Agonist”. In the case of `C[C@]12CCC3C(CC[C@H]4Cc5oc(C(=O)C(F)(F)F)cc5C[C@]34C)C1CC[C@@H]2O` (stereo partly specified), the ED50 is reported as “Agonist”. `CC(=O)c1cc2c(o1)C[C@@H]1CCC3C4CC[C@H](O)[C@@]4(C)CCC3[C@@]1(C)C2` (stereo partly specified) was tested, and the ED50 was “Agonist”. For `C[C@]12CCC3C(CC[C@H]4Cc5oc(C(=O)C6CCC6)cc5C[C@]34C)C1CC[C@@H]2O` (stereo partly specified), the ED50 was “Agonist”. `CC(=O)c1cc2c(o1)C[C@@H]1CCC3C(CC[C@@]4(C)C3CC[C@@H]4O)[C@H]1C2` (stereo partly specified) was tested, and the ED50 was “Agonist”.
